{"source": "patent US9387211B2", "about": "(Cedars-Sinai Medical Center, priority 2010, dated 2016)", "key": {"[1]": {"system": "non-tumor pituitary cell cultures"}, "[2]": {"system": "AtT20 cells stably expressing empty vector (V)", "assay": "Pomc promoter luciferase assay", "settings": "highest gefitinib dose (10 μM); control cells"}, "[3]": {"system": "AtT20 cells stably expressing empty vector (V)", "assay": "Cell proliferation assay (cell counting)", "procedure": "EGFR WT cells were plated at a density of 2×10^4 per well in 12-well plates with growth medium. Cells were counted by hemocytometer at the indicated times."}, "[4]": {"system": "AtT20 cells stably expressing empty vector (V)", "assay": "BrdU incorporation by flow cytometry", "settings": "10 μM gefitinib, 24 hours", "procedure": "Fixative was prepared by adding 30 mL of 50 mM glycin solution (pH 2.0) to 70 mL ethanol. Cells were fixed for overnight at −20° C. Cells were washed with PBS, and resuspended in incubation solution with anti-BrdU antibody (1:10) for 30 minutes at 37° C. with gentle agitation. […] Samples were washed with PBS and fluorescence was measured by flow cytometry."}}, "data": [{"smiles": "COc1cc2ncnc(Nc3ccc(F)c(Cl)c3)c2cc1OCCCN1CCOCC1", "note": "[gefitinib]", "values": [{"measurement": "pomc mRNA expression levels", "setting": "[1]; non-tumor pituitary cell cultures (FIG. 6)", "value": "unaltered"}, {"measurement": "normal pituitary function", "setting": "[1]; normal pituitary (FIG. 5F)", "value": "does not affect"}, {"measurement": "suppression of pomc promoter activity", "setting": "[2]", "value": "~23", "unit": "%"}, {"measurement": "decrease of cell proliferation", "setting": "[3]; gefitinib 0.1-10 μM, 24 hours, V", "value": "not V cell proliferation"}, {"measurement": "cell number", "setting": "[3]; high dose (10 μM) gefitinib, V cells", "value": "not altered"}, {"measurement": "reduction of BrdU incorporation", "setting": "[4]", "value": "~58", "unit": "%"}]}]}
